Measured values published in ChEMBL document CHEMBL2401712, “Fused thiazolyl alkynes as potent mGlu5 receptor positive allosteric modulators” (Bioorg Med Chem Lett, 2013).

Assays:
Liver microsomes [1] = experiment: Intrinsic clearance in rat liver microsomes; format: ADME, Microsome
CYP2D6 = CYP2D6 (Homo sapiens, UniProt P10635); experiment: Inhibition of CYP2D6 (unknown origin) at 5 uM relative to control; format: ADME
[2] = biological target: T1, Metabotropic glutamate receptor 5 (Homo sapiens, UniProt P41594); experiment: Positive allosteric modulation of human mGlu5 receptor expressed in HEK293 cells assessed as potentiation of L-glutamate-induced activity after 1 hr by FLIPR assay relative to control; format: cell-based
Target sequence in this assay (P41594 21-1212 limits assumed): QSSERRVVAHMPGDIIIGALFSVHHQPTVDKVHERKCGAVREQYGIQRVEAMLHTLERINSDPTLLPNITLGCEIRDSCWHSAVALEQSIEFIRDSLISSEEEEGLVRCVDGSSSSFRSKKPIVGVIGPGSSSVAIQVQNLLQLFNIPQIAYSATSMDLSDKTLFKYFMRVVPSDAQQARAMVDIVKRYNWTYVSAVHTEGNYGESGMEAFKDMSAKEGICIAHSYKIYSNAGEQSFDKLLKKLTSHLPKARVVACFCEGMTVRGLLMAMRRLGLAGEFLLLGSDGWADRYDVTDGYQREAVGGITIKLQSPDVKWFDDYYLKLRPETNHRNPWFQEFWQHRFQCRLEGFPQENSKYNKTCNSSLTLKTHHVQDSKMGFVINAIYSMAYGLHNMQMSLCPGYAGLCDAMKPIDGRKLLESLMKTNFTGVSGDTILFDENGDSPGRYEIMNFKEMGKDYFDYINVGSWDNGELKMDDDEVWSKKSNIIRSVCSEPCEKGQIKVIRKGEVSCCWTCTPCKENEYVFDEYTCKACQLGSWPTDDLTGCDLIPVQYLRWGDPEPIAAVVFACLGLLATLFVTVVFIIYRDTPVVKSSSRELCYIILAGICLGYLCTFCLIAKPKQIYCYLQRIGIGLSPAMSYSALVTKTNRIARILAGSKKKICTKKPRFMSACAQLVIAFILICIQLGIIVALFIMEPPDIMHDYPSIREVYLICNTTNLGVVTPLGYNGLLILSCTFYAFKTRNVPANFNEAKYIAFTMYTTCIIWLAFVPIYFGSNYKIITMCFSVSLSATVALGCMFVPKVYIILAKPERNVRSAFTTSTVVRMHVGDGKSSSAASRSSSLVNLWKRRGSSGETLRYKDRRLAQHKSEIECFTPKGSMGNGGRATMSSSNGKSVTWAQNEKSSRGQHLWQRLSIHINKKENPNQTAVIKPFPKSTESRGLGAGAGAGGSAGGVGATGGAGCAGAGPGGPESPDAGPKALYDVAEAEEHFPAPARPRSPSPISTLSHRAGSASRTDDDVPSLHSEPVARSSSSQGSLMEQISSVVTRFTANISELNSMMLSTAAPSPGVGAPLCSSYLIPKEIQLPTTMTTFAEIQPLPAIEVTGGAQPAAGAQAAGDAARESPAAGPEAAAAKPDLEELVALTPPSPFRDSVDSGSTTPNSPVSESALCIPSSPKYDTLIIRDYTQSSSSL

Liver microsomes [3] = experiment: Intrinsic clearance in human liver microsomes; format: ADME, Microsome; design: unit not given here
[4] = Plasma protein binding in human; format: ADME, cell-free; settings: read-out: PPB (converted)
[5] = Plasma protein binding in rat; format: ADME, cell-free; settings: read-out: PPB (converted)
[6] = biological target: T1, Metabotropic glutamate receptor 5; experiment: Positive allosteric modulation of human mGlu5 receptor expressed in HEK293 cells assessed as potentiation of L-glutamate-induced activity after 1 hr by FLIPR assay; format: cell-based
Target sequence in this assay (P41594 whole entry): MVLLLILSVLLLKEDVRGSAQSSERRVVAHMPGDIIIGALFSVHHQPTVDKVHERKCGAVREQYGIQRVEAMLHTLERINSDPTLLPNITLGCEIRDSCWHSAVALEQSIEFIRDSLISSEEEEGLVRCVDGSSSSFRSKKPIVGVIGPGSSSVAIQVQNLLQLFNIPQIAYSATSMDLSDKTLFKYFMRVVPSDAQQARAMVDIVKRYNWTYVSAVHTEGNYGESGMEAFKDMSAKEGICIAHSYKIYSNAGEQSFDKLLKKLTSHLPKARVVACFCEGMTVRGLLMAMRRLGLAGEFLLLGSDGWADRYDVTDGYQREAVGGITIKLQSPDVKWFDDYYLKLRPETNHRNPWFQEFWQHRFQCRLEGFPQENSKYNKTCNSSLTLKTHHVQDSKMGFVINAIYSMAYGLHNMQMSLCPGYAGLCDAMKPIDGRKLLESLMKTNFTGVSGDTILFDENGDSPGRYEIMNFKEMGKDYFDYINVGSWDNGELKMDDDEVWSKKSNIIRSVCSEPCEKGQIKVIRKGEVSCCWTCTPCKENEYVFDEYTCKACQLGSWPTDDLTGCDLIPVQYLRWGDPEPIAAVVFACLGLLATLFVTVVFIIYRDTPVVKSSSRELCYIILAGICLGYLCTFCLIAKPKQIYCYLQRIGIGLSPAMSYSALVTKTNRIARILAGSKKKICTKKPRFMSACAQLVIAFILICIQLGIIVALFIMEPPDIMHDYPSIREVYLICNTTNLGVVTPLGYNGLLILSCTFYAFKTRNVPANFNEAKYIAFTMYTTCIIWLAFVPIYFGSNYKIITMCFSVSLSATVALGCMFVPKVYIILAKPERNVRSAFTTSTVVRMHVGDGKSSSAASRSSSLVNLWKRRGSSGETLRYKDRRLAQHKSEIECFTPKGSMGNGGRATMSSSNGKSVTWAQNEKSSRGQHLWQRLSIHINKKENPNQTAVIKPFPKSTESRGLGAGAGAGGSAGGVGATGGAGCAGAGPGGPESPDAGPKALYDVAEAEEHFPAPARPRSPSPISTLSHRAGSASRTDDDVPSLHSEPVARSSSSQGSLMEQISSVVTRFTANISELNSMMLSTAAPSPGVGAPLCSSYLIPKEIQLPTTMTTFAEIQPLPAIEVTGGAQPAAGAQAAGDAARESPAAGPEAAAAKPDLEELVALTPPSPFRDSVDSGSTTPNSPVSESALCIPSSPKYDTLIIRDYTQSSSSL

[7] = biological target: T1, Metabotropic glutamate receptor 5; experiment: Negative allosteric modulation of human mGlu5 receptor expressed in HEK293 cells assessed as inhibition of L-glutamate-induced activity after 1 hr by FLIPR assay; format: cell-based
Target sequence in this assay (P41594 whole entry): as above

CYP3A4 = CYP3A4 (Homo sapiens, UniProt P08684); experiment: Inhibition of CYP3A4 (unknown origin) at 5 uM relative to control; format: ADME
Chain of CYP3A4 (P08684 whole entry): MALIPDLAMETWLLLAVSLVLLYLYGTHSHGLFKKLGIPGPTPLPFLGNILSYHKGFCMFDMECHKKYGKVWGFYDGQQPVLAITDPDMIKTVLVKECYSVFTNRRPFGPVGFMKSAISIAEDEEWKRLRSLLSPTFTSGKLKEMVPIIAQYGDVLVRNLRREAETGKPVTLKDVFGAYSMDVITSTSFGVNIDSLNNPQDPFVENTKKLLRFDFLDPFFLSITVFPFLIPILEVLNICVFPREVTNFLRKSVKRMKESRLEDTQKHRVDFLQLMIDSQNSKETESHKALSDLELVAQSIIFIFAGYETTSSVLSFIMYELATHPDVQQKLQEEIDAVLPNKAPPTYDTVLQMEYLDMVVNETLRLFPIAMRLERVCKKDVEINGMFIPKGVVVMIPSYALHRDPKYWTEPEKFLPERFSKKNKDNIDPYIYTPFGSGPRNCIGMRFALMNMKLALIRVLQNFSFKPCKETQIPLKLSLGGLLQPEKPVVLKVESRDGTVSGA

Liver microsomes [8] = experiment: Metabolic stability in human liver microsomes assessed as GSH adduct formation after 60 mins by LC-MS/MS analysis; format: ADME, Microsome; settings: 1 h
[9] = biological target: T1, Metabotropic glutamate receptor 5; experiment: Positive allosteric modulation of mGlu5 receptor (unknown origin)
Target sequence in this assay (P41594 whole entry): as the sequence (P41594 whole entry) above

[10] = biological target: T1, Metabotropic glutamate receptor 5; experiment: Positive allosteric modulation of mGlu5 receptor (unknown origin) relative to control
Target sequence in this assay (P41594 21-1212 limits assumed): as the sequence (P41594 21-1212 limits assumed) above

[11] = biological target: T1, Metabotropic glutamate receptor 5; experiment: Negative allosteric modulation of human mGlu5 receptor expressed in HEK293 cells assessed as inhibition of L-glutamate-induced activity after 1 hr by FLIPR assay relative to control; format: cell-based; design: concentration or dose not given beside the values; settings: concentration not given here
Target sequence in this assay (P41594 21-1212 limits assumed): as above

Chain of CYP2D6 (P10635 whole entry): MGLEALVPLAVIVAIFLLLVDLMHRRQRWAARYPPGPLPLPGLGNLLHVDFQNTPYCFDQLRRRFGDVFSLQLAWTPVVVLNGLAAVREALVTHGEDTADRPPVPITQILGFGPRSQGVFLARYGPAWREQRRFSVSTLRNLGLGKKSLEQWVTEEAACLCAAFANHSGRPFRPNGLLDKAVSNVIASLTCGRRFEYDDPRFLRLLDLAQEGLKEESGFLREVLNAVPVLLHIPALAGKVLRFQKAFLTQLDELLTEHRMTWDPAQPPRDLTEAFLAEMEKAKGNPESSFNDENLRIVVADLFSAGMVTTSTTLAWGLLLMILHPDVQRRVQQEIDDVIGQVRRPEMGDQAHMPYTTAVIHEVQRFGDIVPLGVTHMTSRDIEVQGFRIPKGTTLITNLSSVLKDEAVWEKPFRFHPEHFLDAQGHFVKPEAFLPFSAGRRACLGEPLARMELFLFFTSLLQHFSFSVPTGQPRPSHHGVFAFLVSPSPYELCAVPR

| CLH (Liver microsomes [1]) [mL/min] | inhibition at 5 µM (CYP2D6) [%] | Emax [2] [%] | CLH (Liver microsomes [3]) | fraction unbound [4] | fraction unbound [5] | EC50 [6] [µM] | IC50 [7] [µM] | inhibition at 5 µM (CYP3A4) [%] | Stability (Liver microsomes [8]) | EC50 [9] [µM] | Emax [10] [%] | inhibition [11] [%] | Structure (SMILES) |
| --- | --- | --- | --- | --- | --- | --- | --- | --- | --- | --- | --- | --- | --- |
| 49 | < 40 | 180 | 1 | 0.024 | 0.047 | 0.0098 | > 10 | < 40 |  |  |  |  | O=C(N1CCCC1)N1CCc2nc(C#Cc3ccccc3)sc2C1 |
|  |  |  |  |  |  |  |  |  | Unstable | 0.0061 | 167 |  | O=C(c1cnc(C#Cc2ccccc2)s1)N1CCCCC1 |
| 7.6 | < 40 | 89 | 1.1 | 0.011 | 0.012 | 0.018 | > 10 | < 40 | Stable |  |  | 52 | O=C(C1CC(F)(F)C1)N1CCc2nc(C#Cc3ccccc3)sc2C1 |
|  |  | 61 |  |  |  | 0.085 | > 10 |  |  |  |  | 38 | O=C(C1CC(F)C1)N1CCc2nc(C#Cc3ccccc3)sc2C1 (stereo not drawn) |
| 52 | < 40 | 180 | 3.1 | 0.033 | 0.049 | 0.0024 | > 10 | < 40 | Unstable |  |  |  | CN1CCc2nc(C#Cc3ccccc3)sc2C1=O |
|  |  | -6 |  |  |  | > 10 | 1.2 |  |  |  |  | 51 | CCN1CCc2nc(C#Cc3ccccc3)sc2C1 |
|  |  | 150 |  |  |  | 0.029 | > 10 |  |  |  |  | 6.7 | COc1cccc(C(=O)N2CCc3nc(C#Cc4ccccc4)sc3C2)c1 |
|  |  | 120 |  |  |  | 0.081 | > 10 |  |  |  |  | 13 | CC1CC(C(=O)N2CCc3nc(C#Cc4ccccc4)sc3C2)C1 (stereo not drawn) |
|  |  | -8 |  |  |  | > 10 | > 10 |  |  |  |  | 6 | CN1CCc2nc(C#Cc3cccc(F)c3)sc2C1 |
|  |  | 27 |  |  |  | > 10 | > 10 |  |  |  |  | 9 | O=C(N1CCc2nc(C#Cc3ccccc3)sc2C1)N1CC(F)C1 |
|  |  | 80 |  |  |  | 0.19 | > 10 |  |  |  |  | 0 | CC1CCC(C(=O)N2CCc3nc(C#Cc4ccccc4)sc3C2)CC1 (stereo not drawn) |
| 88 | < 40 | 110 | 4.9 | 0.035 | 0.061 | 0.034 | > 10 | < 40 | Stable |  |  |  | CN1CCc2nc(C#Cc3ccccc3)sc2C1 |
|  |  | 95 |  |  |  | 0.0039 | > 10 |  |  |  |  | 10 | O=C(C1CC12CCC2)N1CCc2nc(C#Cc3ccccc3)sc2C1 (stereo not drawn) |
|  |  | 6 |  |  |  | > 10 | 0.78 |  |  |  |  | 86 | O=S(=O)(N1CCCCC1)N1CCc2nc(C#Cc3ccccc3)sc2C1 |
|  |  | -44 |  |  |  | > 10 | 0.64 |  |  |  |  | 94 | Fc1cccc(C#Cc2nc3c(s2)CN(C2CCCC2)CC3)c1 |
|  |  | 100 |  |  |  | 0.32 | > 10 |  |  |  |  | 35 | O=C(C1CCCCO1)N1CCc2nc(C#Cc3ccccc3)sc2C1 (stereo not drawn) |
|  |  | 87 |  |  |  | 0.017 | > 10 |  |  |  |  | 19 | CC1CC(C(=O)N2CCc3nc(C#Cc4cccc(F)c4)sc3C2)C1 (stereo not drawn) |
|  |  | -13 |  |  |  | > 10 | 0.29 |  |  |  |  | 61 | O=C(C1CC1)N1CCc2nc(C#Cc3ccccc3)sc2C1 |
|  |  | -9 |  |  |  | > 10 | 0.036 |  |  |  |  | 78 | O=S(=O)(N1CCCC1)N1CCc2nc(C#Cc3ccccc3)sc2C1 |
|  |  | 110 |  |  |  | 0.22 | > 10 |  |  |  |  | 3.7 | Cc1nc(C(=O)N2CCc3nc(C#Cc4ccccc4)sc3C2)cs1 |
|  |  | -18 |  |  |  | > 10 | 0.09 |  |  |  |  | 79 | CC(=O)N1CCc2nc(C#Cc3ccccc3)sc2C1 |
|  |  | 73 |  |  |  | 0.15 | > 10 |  |  |  |  | 13 | O=C(C1CC(F)(F)C1)N1CCc2nc(C#Cc3ccc(F)cc3)sc2C1 |
|  |  | 1.5 |  |  |  | > 10 | 0.013 |  |  |  |  | 89 | O=S(=O)(N1CCOCC1)N1CCc2nc(C#Cc3ccccc3)sc2C1 |
|  |  | 45 |  |  |  | 0.47 | > 10 |  |  |  |  | -2 | O=C(CC1CCOCC1)N1CCc2nc(C#Cc3ccccc3)sc2C1 |
|  |  | -2 |  |  |  | > 10 | 0.072 |  |  |  |  | 87 | CCN1CCc2nc(C#Cc3cccc(F)c3)sc2C1 |
